The nature of data set [1]: pKa determination of E-P a-dH+ by UV-Vis titration. The data set is classed as physicochemical. The settings on record: acidity constant of the cationic E form, water, 20 mM phosphate buffer, 298 K, triplicate. The text has this: (§1) With the photovermellogens synthesized and fully characterized, their acid–base properties were next investigated by UV–vis spectroscopy to determine whether the pH-responsiveness characteristic of parent vermellogens was retained. Indeed, P a–dH·Cl reproduced the archetypical absorption changes of vermellogens (Figures c and S130–S137, SI1). , In essence, the characteristic intense π–π* absorption bands of the cations undergo a considerable bathochromic shift upon deprotonation (Table ), as also confirmed by our quantum chemical calculations (Figure S2, S2), causing a notable color change from yellow to red. This pronounced shift allowed the estimation of pK a values for E-P a–dH^+ via UV–vis absorption titrations, which, as for other vermellogens, fall within the biologically relevant pH range (Figure c, Table and Figures S130–S137, SI1). Changes in the protonation state were also easily monitored by ^1H NMR spectroscopy, with the gain in electronic density translating in a substantial shielding of resonances of the corresponding conjugate bases E/Z-P a–d (Figure a). As already observed for E-P a–dH^+, the deprotonated species were also thermally stable in the absence of light.
4. Determination of pK a values for E-P a-dH+ by UV-Vis spectroscopy.
All the experiments were recorded on a Jasco V-650 spectrometer. […] Considering the previously reported behaviour of vermellogens,5 UV-Vis spectra were initially recorded in the 4-12 pH range, to qualitatively determine in each case the presence or absence of characteristic absorption bands for the acidic-basic forms of the compounds. From the qualitative data, UV-Vis titrations were recorded in the appropriate pH range for each […]
Figure S132. UV-Vis spectra of P bH·Cl at pH 5 (black) and pH 12 (red) at 20 µM. b) Linear relationship at pH 5 between absorbance at 378 nm and concentration of P bH·Cl (ε = 42265 ± 838 L·mol -1·cm-1). c) Linear relationship at pH 12 between absorbance at 456 nm and concentration of P bH·Cl (ε = 42143 ± 1044 L·mol -1·cm-1). […]
Figure S134. UV-Vis spectra of P cH·Cl at pH 6 (black) and pH 12 (red) at 14 µM. b) Linear relationship at pH 6 between absorbance at 350 nm and concentration of P cH·Cl (ε = 49266 ± 1780 L·mol-1·cm-1). c) Linear relationship at pH 12 between absorbance at 433 nm and concentration of P cH·Cl (ε = 46382 ± 1667 L·mol -1·cm-1). […]
Figure S136. UV-Vis spectra of P dH·Cl at pH 6 (red) and pH 13 (black) at 11 µM. b) Linear relationship at pH 6 between absorbance at 411 nm and concentration of P dH·Cl (ε = 65691 ± 2966 L·mol-1·cm-1). c) Linear relationship at pH 13 between absorbance at 500 nm and concentration of P dH·Cl (ε = 69154 ± 3100 L·mol -1·cm-1). […]

Data set [2] in a line: UV-vis absorption spectra in buffered water (λmax, molar absorption coefficient). The format is physicochemical. The conditions noted are these: for λmax (Z-P) / ε (Z-P): Z conjugate base; for λmax (Z-P) / λmax (E-P) / λmax (E-PH^+) / λmax (Z-PH^+): maximum of the longest-wavelength absorption band; for λmax (Z-P) / ε (Z-P) / λmax (E-P) / ε (E-P) / λmax (E-PH^+) / λmax (Z-PH^+) / ε (E-PH^+) / ε (Z-PH^+): water; for ε (Z-P) / ε (E-P): molar absorption coefficient; for ε (Z-P) / ε (E-P) / ε (E-PH^+) / ε (Z-PH^+): error ± 5%; for λmax (E-P) / ε (E-P): conjugate base; for ε (E-PH^+) / ε (Z-PH^+): molar absorption coefficient at λmax; for ε of the acidic form from absorbance vs concentration: P bH·Cl pH 5, 378 nm, P cH·Cl pH 6, 350 nm, P dH·Cl pH 6, 411 nm; for ε of the basic form from absorbance vs concentration: P bH·Cl pH 12, 456 nm, P cH·Cl pH 12, 433 nm, P dH·Cl pH 13, 500 nm.
Excerpt: as §1
Having confirmed the photochemical behavior of the protonated forms, we next explored their light-responsiveness in the deprotonated state. […] To probe whether Z-P a–c could nonetheless be generated indirectly, we explored a consecutive photoisomerization–deprotonation sequence. Thus, E-P a–cH^+ was first irradiated at 254 nm and pH 6 to enrich the Z population, followed by immediate adjustment of the solution to pH 13. Under these conditions, transient spectroscopic features were observed, consistent with the kinetic trapping of the metastable Z-P a–c species. […] These spectroscopic observations enabled the estimation of virtual pK a values for the Z-enriched solutions (Table and Figures S163–168, SI1), which confirmed the reduced acidity of the NH group in the Z-isomers, presumably arising from intramolecular hydrogen-bond formation.
Figure S132. UV-Vis spectra of P bH·Cl at pH 5 (black) and pH 12 (red) at 20 µM. b) Linear relationship at pH 5 between absorbance at 378 nm and concentration of P bH·Cl (ε = 42265 ± 838 L·mol -1·cm-1). c) Linear relationship at pH 12 between absorbance at 456 nm and concentration of P bH·Cl (ε = 42143 ± 1044 L·mol -1·cm-1).
Figure S133. UV-Vis spectra for the titration of P bH·Cl (20 μM in phosphate buffer solutions in the 4.1-10.6 pH range). b) Absorption of P bH+ at λ = 378 nm plotted against pH. c) Linear fitting […]
Figure S134. UV-Vis spectra of P cH·Cl at pH 6 (black) and pH 12 (red) at 14 µM. b) Linear relationship at pH 6 between absorbance at 350 nm and concentration of P cH·Cl (ε = 49266 ± 1780 L·mol-1·cm-1). c) Linear relationship at pH 12 between absorbance at 433 nm and concentration of P cH·Cl (ε = 46382 ± 1667 L·mol -1·cm-1).
Figure S135.UV-Vis spectra for the titration of P cH·Cl, (14 μM in phosphate buffer solutions in the 5.1-11.7 pH range). b) Absorption of P cH+ at λ = 351 nm plotted against pH. c) Linear fitting […]
Figure S136. UV-Vis spectra of P dH·Cl at pH 6 (red) and pH 13 (black) at 11 µM. b) Linear relationship at pH 6 between absorbance at 411 nm and concentration of P dH·Cl (ε = 65691 ± 2966 L·mol-1·cm-1). c) Linear relationship at pH 13 between absorbance at 500 nm and concentration of P dH·Cl (ε = 69154 ± 3100 L·mol -1·cm-1).
Figure S137. UV-Vis spectra for the titration of P dH·Cl (11 μM in phosphate buffer solutions in the 5.1-11.7 pH range). b) Absorption of P dH+ at λ = 410 nm plotted against pH. c) Linear fitting

Consider `C[n+]1ccc(NN=CC(=O)c2ccccc2)cc1` [P aH^+], for which the “pK a (E-PH^+)” value in data set [1] came out at 8.8 ± 0.2. In data set [2], the “λmax (Z-P)” value turned out to be 420 nm, the “ε (Z-P)” value was 18,000 M^–1·cm^–1, the “λmax (E-P)” value is given as 429 nm and the “ε (E-P)” value is 39,000 M^–1·cm^–1. In addition, in data set [2], the “λmax (E-PH^+)” value amounted to 342 nm, the “λmax (Z-PH^+)” value is reported as 352 nm, the “ε (E-PH^+)” value is recorded as 41,000 M^–1·cm^–1 and the “ε (Z-PH^+)” value is on record as 43,000 M^–1·cm^–1.

Regarding `C[n+]1ccc(NN=CC(=O)c2ccccc2)c2ccccc21` [P bH^+], in data set [1], the “pK a (E-PH^+)” value was 7.2 ± 0.1. Also, in data set [2], the “ε of the acidic form from absorbance vs concentration” value is 42265 ± 838 L/mol/cm, the “ε of the basic form from absorbance vs concentration” value amounted to 42143 ± 1044 L/mol/cm, the “λmax (Z-P)” value came out at 445 nm and the “ε (Z-P)” value is on record as 13,000 M^–1·cm^–1. In data set [2], the “λmax (E-P)” value amounted to 456 nm, the “ε (E-P)” value is given as 42,000 M^–1·cm^–1, the “λmax (E-PH^+)” value is on record as 378 nm and the “λmax (Z-PH^+)” value was 384 nm. Also, in data set [2], the “ε (E-PH^+)” value was 42,000 M^–1·cm^–1 and the “ε (Z-PH^+)” value is 36000 M^–1·cm^–1.

Take `O=C(C=NNc1cc[n+](-c2ccccc2)cc1)c1ccccc1` [P cH^+]: the “pK a (E-PH^+)” value in data set [1] is listed as 7.8 ± 0.1. Also, in data set [2], the “ε of the acidic form from absorbance vs concentration” value was determined as 49266 ± 1780 L/mol/cm, the “ε of the basic form from absorbance vs concentration” value is 46382 ± 1667 L/mol/cm, the “λmax (Z-P)” value came to 420 nm and the “ε (Z-P)” value was 15,000 M^–1·cm^–1. Besides, in data set [2], the “λmax (E-P)” value is reported as 432 nm, the “ε (E-P)” value is 46,000 M^–1·cm^–1, the “λmax (E-PH^+)” value came out at 349 nm and the “λmax (Z-PH^+)” value came out at 359 nm. In data set [2], the “ε (E-PH^+)” value is given as 49,000 M^–1·cm^–1 and the “ε (Z-PH^+)” value is given as 43,000 M^–1·cm^–1.

On to `C[n+]1ccc(-c2ccc(NN=CC(=O)c3ccccc3)cc2)cc1` [P dH^+], for which, in data set [1], the “pK a (E-PH^+)” value was 11.2 ± 0.1. Also, in data set [2], the “ε of the acidic form from absorbance vs concentration” value turned out to be 65691 ± 2966 L/mol/cm, the “ε of the basic form from absorbance vs concentration” value was 69154 ± 3100 L/mol/cm, the “λmax (E-P)” value came out at 500 nm and the “ε (E-P)” value is 69,000 M^–1·cm^–1. Moreover, in data set [2], the “λmax (E-PH^+)” value is 411 nm and the “ε (E-PH^+)” value is on record as 66,000 M^–1·cm^–1.

The values above are taken from publication PMC13185115, “Photovermellogens: Minimalistic Pyridinium-Based Acylhydrazones with Photoswitchable Basicity for Operation in Aqueous Media” (The Journal of Organic Chemistry, 2026).
